In this assay the target is recombinant guinea pig liver TGase (Cavia cutleri (Guinea pig), UniProt P08587). Put plainly: biochemical. It is filed as biochemical. The method, then:
ENZYME INHIBITION BY COMPOUNDS 14a-c, 14l, 15a, 15d-k, 15m-q, 30a, 30r, 30t, 37a and 38a: For enzymology studies of these compounds, recombinant guinea pig liver TGase was expressed in Escherichia coli and effectively purified (Gillet, S. M. F. G. et al J. N., Prot. Exp. & Purif. 2004, 33, 256).
The mode of inhibition was determined for the representative lead compound 14a through non-linear regression of initial rate data to the Michaelis-Menten equation (FIG. 1).
For the ensuing enzymatic tests, recombinant guinea pig liver TGase was expressed in E. Coli and effectively purified.
Kinetic runs were recorded on a Cary 100 BIO UV-Visible spectrophotometer at 405 nm and 25° C., in a buffer composed of 50 mM CaCl2, 50 μM EDTA and 0.1 M MOPS (pH 7.0). All aqueous solutions were prepared using de-ionized water purified from the Millipore BioCell system. […] Factor XIIIa activity was measured using a coupled-enzyme assay (Day, N.; Keillor, J. W. Anal. Biochem. 1999, 274, 141). Factor XIIIa, was added to a final concentration of 0.89 μg/mL to a pH 8.5 solution (0.1 M Tris-HCl, 5 mM CaCl2 and 10 mM DDT) of 0.5 mM β-NADH, 3.3 mM Na-acetyl-L-lysine methyl ester, 10 mM α-ketoglutaric acid sodium salt and 297 μg/mL glutamate dehydrogenase (GDH).

The mark [1] stands for this setting: Table 1, substituent on the cinnamoyl aromatic group, read-out: IC50 (μM), class symbol.
Setting [2] is: Table 1, value in brackets, read-out: IC50.
The mark [3] stands for this setting: Table 3, influence of the acylated moiety, read-out: IC50 (μM), class symbol.
The mark [4] stands for this setting: Table 3, value in brackets, read-out: IC50.
[5] abbreviates: Table 2, influence of the cinnamoyl double bond, read-out: IC50 (μM), class symbol.
[6] abbreviates: Table 2, value in brackets or words, read-out: IC50.

“Also recorded” adds a separate entry of the source. Read-outs that look alike come from different tables or passages of the source.

From patent publication US9162991B2 (University of Ottawa, priority 2007, dated 2015) come the findings set out here.

Sequence of recombinant guinea pig liver TGase (P08587 whole entry): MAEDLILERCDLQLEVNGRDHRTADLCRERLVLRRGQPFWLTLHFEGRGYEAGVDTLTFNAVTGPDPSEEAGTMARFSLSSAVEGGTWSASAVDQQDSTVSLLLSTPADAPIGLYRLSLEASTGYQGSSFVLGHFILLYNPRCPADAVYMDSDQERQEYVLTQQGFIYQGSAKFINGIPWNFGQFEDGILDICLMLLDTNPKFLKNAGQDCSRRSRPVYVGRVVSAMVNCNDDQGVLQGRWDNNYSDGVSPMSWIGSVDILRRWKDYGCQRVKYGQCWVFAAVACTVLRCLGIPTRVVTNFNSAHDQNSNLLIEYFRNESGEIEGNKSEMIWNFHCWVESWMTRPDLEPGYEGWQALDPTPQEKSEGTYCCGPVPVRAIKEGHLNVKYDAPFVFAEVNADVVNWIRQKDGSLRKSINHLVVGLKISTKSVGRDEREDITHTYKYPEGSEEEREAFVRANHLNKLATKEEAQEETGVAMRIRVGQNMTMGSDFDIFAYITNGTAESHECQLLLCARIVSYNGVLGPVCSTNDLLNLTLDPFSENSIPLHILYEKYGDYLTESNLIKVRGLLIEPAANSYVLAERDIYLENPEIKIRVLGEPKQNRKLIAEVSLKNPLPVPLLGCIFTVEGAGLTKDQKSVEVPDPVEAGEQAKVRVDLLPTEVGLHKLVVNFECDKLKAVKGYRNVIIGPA

Take `CC(=O)Nc1ccc(/C=C/C(=O)c2cccnc2)cc1` [Compound 30t, (E)-3-(4-acetylaminophenyl)-1-(pyridin-3-yl)prop-2-en-1-one]: the “TGase inhibitory activity (in words)” value is listed as “as effective as the benzotriazolyl amide inhibitors”. Further, under setting [1], the IC50 lay in the range of 20 to 50 µM. Also, under setting [2], the IC50 was found to be 28 µM.

In the case of `O=C(C=Cc1ccc([N+](=O)[O-])cc1)N(Cc1ccccc1)Cc1ccccc1` [Compound 26a, p-Nitrocinnamoyl dibenzyl amide], the IC50 under setting [3] lay within 20 to 50 µM, the IC50 under setting [4] amounted to 57 µM and the IC50 (read-out: IC50) is 57 µM.

Consider `O=C(C=Cc1cccc(Cl)c1)On1nnc2ccccc21` [Compound 14l, m-Chlorocinnamoyl oxybenzotriazolyl amide], for which the IC50 reads like this: under setting [1], 20 to 50 µM; under setting [2], 41 µM; (read-out: IC50) 41 µM.

For `O=C(/C=C/c1ccc([N+](=O)[O-])cc1)c1cn(CC2CCCCC2)nn1` [Compound 4f, (E)-1-(1-(cyclohexylmethyl)-1H-1,2,3-triazol-4-yl)-3-(4-nitrophenyl)prop-2-en-1-one], the IC50 is less than 20 µM and the “loss in potency (fold)” value is on record as 2.5 fold. Besides, the IC50 (read-out: IC50) amounted to 11 µM.

For `O=C(/C=C/c1ccc([N+](=O)[O-])cc1)c1cn(C(c2ccccc2)c2ccccc2)nn1` [Compound 4l, (E)-1-(1-benzhydryl-1H-1,2,3-triazol-4-yl)-3-(4-nitrophenyl)prop-2-en-1-one], the IC50 was greater than 50 µM and the “TGase inhibitory activity (in words)” value is reported as “relatively poor activity”. Further, where the note is “read-out: IC50”, the IC50 is greater than 100 µM.

Take `O=C(/C=C/c1ccc([N+](=O)[O-])cc1)c1cn(Cc2ccccn2)nn1` [Compound 4e, (E)-3-(4-nitrophenyl)-1-(1-((pyridin-2-yl)methyl)-1H-1,2,3-triazol-4-yl)prop-2-en-1-one]: the IC50 was less than 20 µM and the “TGase inhibitory activity (in words)” value is “lower potency”. Also, the IC50 (read-out: IC50) was 18 µM.

As for `O=C(/C=C/c1ccccc1Cl)n1nnc2ccccc21` [Compound 15m, o-Chlorocinnamoyl benzotriazolyl amide], the IC50 was greater than 50 µM under setting [1] and greater than 100 µM under setting [2].

In the case of `O=C(/C=C/c1ccc([N+](=O)[O-])cc1)N1CCc2ccccc21` [Compound 25a, p-Nitrocinnamoyl indolinyl amide], the IC50 under setting [3] was greater than 50 µM.

On to `O=C(c1ccc([N+](=O)[O-])cc1)n1nnc2ccccc21` [Compound 34a, p-Nitrobenzoyl benzotriazolyl amide], for which the “IC50 (μM)” value (Table 2, value in brackets or words) is listed as “irreversible”. For the setting “versus acyl-donor substrate”, the mode of inhibition result is on record as “irreversible inhibitor”.

On to `O=C(/C=C/c1ccc([N+](=O)[O-])cc1)c1cn(Cc2ccc([N+](=O)[O-])cc2)nn1` [Compound 4d, (E)-1-(1-(4-nitrobenzyl)-1H-1,2,3-triazol-4-yl)-3-(4-nitrophenyl)prop-2-en-1-one], for which the IC50 is less than 20 µM, the “TGase inhibitory activity (in words)” value is on record as “most efficient inhibitors in the series” and the mode of inhibition result is given as “competitive inhibition”. Where the note is “read-out: IC50”, the IC50 came out at 2.1 µM.

In the case of `O=C(/C=C/C=C/c1ccc([N+](=O)[O-])cc1)n1nnc2ccccc21` [Compound 37a, (2E,4E)-5-(4-Nitrophenyl)penta-2-4-dienoyl benzotriazolyl amide], the “TGase inhibitory activity (in words)” value is “Neither of these two extended conjugated compounds showed significant inhibition”. Further, under setting [5], the IC50 was greater than 50 µM. For the same compound, the IC50 under setting [6] was greater than 200 µM.

For the compound `O=C(C=Cc1cccc([N+](=O)[O-])c1)On1nnc2ccccc21` [Compound 14b, m-Nitrocinnamoyl oxybenzotriazolyl amide], the IC50 under setting [1] was 20 to 50 µM and the IC50 under setting [2] is 24 µM.

`O=C(C=Cc1ccc([N+](=O)[O-])cc1)On1nnc2ccccc21` [Compound 14a, p-Nitrocinnamoyl oxybenzotriazolyl amide]: the “TGase inhibitory activity (in words)” value is “Inhibitory activity was observed”. Moreover, the IC50 under setting [1] lay in the range of 20 to 50 µM. The IC50 under setting [2] is 43 µM. For the same compound, under setting [3], the concentration for half-maximal inhibition (IC50) was 20 to 50 µM. Further, the mode of inhibition entry (versus acyl-donor substrate) was “competitive inhibition; also recorded: competitive inhibitor”.

For `O=C(/C=C/c1ccc([N+](=O)[O-])cc1)Nc1ccccc1` [Compound 22a, p-Nitrocinnamoyl phenyl amide], the IC50 under setting [3] is greater than 50 µM.

With `O=C(/C=C/c1ccc([N+](=O)[O-])cc1)c1ccccc1` [Compound 31a, reference compound], the “TGase inhibitory activity (in words)” value is reported as “lack of activity”.

Take `O=C(/C=C/c1ccc([N+](=O)[O-])cc1)c1cn(Cc2cccc([N+](=O)[O-])c2)nn1` [Compound 4g, (E)-1-(1-(3-nitrobenzyl)-1H-1,2,3-triazol-4-yl)-3-(4-nitrophenyl)prop-2-en-1-one]: the “reduction in potency (fold)” value was 4-7 fold. Also, where the note is “IC50 (μM), Table 6, value in brackets”, the concentration for half-maximal inhibition (IC50) turned out to be 9.4 µM. Moreover, where the note is “IC50 (μM), class symbol, Table 6, Huisgen [3+2] cycloaddition products”, the IC50 is less than 20 µM.

On to `O=C(/C=C/c1ccc([N+](=O)[O-])cc1)Nc1cccc2ccccc12` [Compound 23a, p-Nitrocinnamoyl naphtalenyl amide], for which the IC50 is greater than 50 µM under setting [3] and greater than 200 µM under setting [4].

Take `Nc1ccc(/C=C/C(=O)c2cccnc2)cc1` [Compound 30r, (E)-3-(4-aminophenyl)-1-(pyridin-3-yl)prop-2-en-1-one]: the “TGase inhibitory activity (in words)” value was “as effective as the benzotriazolyl amide inhibitors”. Further, under setting [1], the IC50 is greater than 50 µM. In addition, under setting [2], the IC50 is 148 µM. Besides, the “loss of potency (fold)” value (relative to p-nitro azachalcone 30a) was determined as 5 fold.

On to `O=C(Nc1ccc(C=CC(=O)n2nnc3ccccc32)cc1)OCC1c2ccccc2-c2ccccc21` [Compound 15p, p-(9-Fluorenylmethoxycarbonylamino)cinnamoyl benzotriazolyl amide], for which the IC50 by setting is: under setting [1], 20 to 50 µM; under setting [2], 25 µM.

Take `O=C(CCc1ccc([N+](=O)[O-])cc1)n1nnc2ccccc21` [Compound 33a, p-Nitrohydrocinnamoyl benzotriazolylamide]: the “TGase inhibitory activity (in words)” value is “significant loss of activity”. Besides, the IC50 under setting [5] was greater than 50 µM. Under setting [6], the IC50 was greater than 200 µM.

Take `O=C(/C=C/c1ccc(Cl)cc1)n1nnc2ccccc21` [Compound 15k, p-Chlorocinnamoyl benzotriazolyl amide]: the IC50 under setting [1] is greater than 50 µM and the IC50 under setting [2] is greater than 100 µM.

Take `O=C(OCc1ccc([N+](=O)[O-])cc1)n1nnc2ccccc21` [Compound 32a, p-Nitrobenzyloxycarbonylbenzotriazole]: the “TGase inhibitory activity (in words)” value was “significant loss of activity”. In addition, the IC50 under setting [5] was greater than 50 µM. Further, the IC50 under setting [6] is greater than 200 µM.

Regarding `O=C(/C=C/c1ccc([N+](=O)[O-])cc1)N1CCCCC1` [Compound 24a, p-Nitrocinnamoyl piperidinyl amide], the IC50 was greater than 50 µM.

With `O=C(/C=C/c1ccc([N+](=O)[O-])cc1)c1cn(Cc2cnn[nH]2)nn1` [Compound 4m, (E)-1-(1-((3H-1,2,3-triazol-4-yl)methyl)-1H-1,2,3-triazol-4-yl)-3-(4-nitrophenyl)prop-2-en-1-one], the IC50 lay in the range of 20 to 50 µM and the “TGase inhibitory activity (in words)” value is recorded as “relatively higher IC50 value; also recorded: high IC50”. For the setting “read-out: IC50”, the half-inhibitory concentration (IC50) turned out to be 33 µM.

Turning to `O=C(/C=C/c1ccc([N+](=O)[O-])cc1)c1cn(Cc2ccccc2)nn1` [Compound 4a, (E)-1-(1-benzyl-1H-1,2,3-triazol-4-yl)-3-(4-nitrophenyl)prop-2-en-1-one], the 50% inhibitory concentration (IC50) was less than 20 µM. For the same compound, the IC50 (read-out: IC50) was determined as 4.3 µM.

On to `O=C(/C=C/c1ccc([N+](=O)[O-])cc1)c1cn(Cc2c(F)c(F)c(F)c(F)c2F)nn1` [Compound 4i], for which the IC50 is greater than 50 µM.

On to `O=C(/C=C/c1ccc([N+](=O)[O-])cc1)N1CCCOC1` [Compound 29a, (E)-3-(4-Nitrophenyl)-1-(1,3-oxazinan-3-yl)prop-2-en-1-one], for which the “TGase inhibitory activity (in words)” value is on record as “little inhibitory potency”. Besides, the IC50 under setting [3] was greater than 50 µM. Moreover, the IC50 under setting [4] was greater than 200 µM.

For `O=C(/C=C/c1ccccc1)n1nnc2ccccc21` [Compound 15j, Cinnamoyl benzotriazolyl amide], the IC50 under setting [1] was greater than 50 µM and the IC50 under setting [2] is greater than 100 µM.

In the case of `O=C(C=Cc1ccccc1[N+](=O)[O-])On1nnc2ccccc21` [Compound 14c, o-Nitrocinnamoyl oxybenzotriazolyl amide], the concentration for half-maximal inhibition (IC50) is greater than 50 µM under setting [1] and greater than 100 µM under setting [2].

For `COC(=O)c1ccc(/C=C/C(=O)n2nnc3ccccc32)cc1` [Compound 15q, p-(Methoxycarbonyl)cinnamoyl benzotriazolyl amide], the IC50 is 20 to 50 µM under setting [1] and 27 µM under setting [2].

For the compound `COc1cccc(/C=C/C(=O)n2nnc3ccccc32)c1` [Compound 15e, m-Methoxycinnamoyl benzotriazolyl amide], the IC50 is, setting by setting: under setting [1], greater than 50 µM; under setting [2], greater than 100 µM.

The term IC50 denotes the point on the concentration scale where inhibition reaches its midpoint.
